Results reported in US10155741B2, “Pyridine or pyrimidine derivatives” (Hoffmann-La Roche Inc., priority 2015, dated 2018).

Target: T1, human EAAT3 (Homo sapiens, UniProt P43005)
T1 construct: expressed in transfected cells
T1 sequence (P43005 1-524): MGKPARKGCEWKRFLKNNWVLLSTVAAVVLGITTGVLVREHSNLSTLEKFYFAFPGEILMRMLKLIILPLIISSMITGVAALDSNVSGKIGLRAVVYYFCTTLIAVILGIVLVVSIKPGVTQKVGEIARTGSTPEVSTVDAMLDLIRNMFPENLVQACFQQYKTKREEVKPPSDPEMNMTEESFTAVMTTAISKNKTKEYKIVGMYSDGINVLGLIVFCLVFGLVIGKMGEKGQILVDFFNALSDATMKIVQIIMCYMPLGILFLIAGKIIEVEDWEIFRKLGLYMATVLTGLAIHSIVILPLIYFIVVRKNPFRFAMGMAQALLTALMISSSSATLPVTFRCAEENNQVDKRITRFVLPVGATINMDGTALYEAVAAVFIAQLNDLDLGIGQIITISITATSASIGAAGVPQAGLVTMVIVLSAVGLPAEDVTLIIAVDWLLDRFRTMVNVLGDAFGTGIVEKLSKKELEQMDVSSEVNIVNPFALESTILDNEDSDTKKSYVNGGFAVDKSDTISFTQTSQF
Test: FLIPR Membrane Potential (FMP) assay, antagonist potency at human EAAT3
Assay type: cell-based
Details: HEK-293 cells stably expressing human EAAT3; L-glutamate as agonist at EC80; antagonist applied 15 min before; Kb by Cheng-Prusoff equation
Procedure: The FLIPR Membrane Potential (FMP) Assay
HEK-293 cells stably expressing human EAAT3 were seeded at 55 000 cells/well in growth medium (DMEM glutamate free (Invitrogen 11960-044), 1% Pen Strep (10 ml/l GIBCO BRL No 15140-023), 10% FCS non dialysed heat inactivated, 5 mg/l puromycin) in poly-D-lysine treated 96-well black microtiter plates with clear-bottom. After 24 h, the growth medium was removed and 100 μl/well of Krebs buffer (140 mM NaCl, 4.7 mM KCl, 2.5 mM CaCl2, 1.2 mM MgCl2, 11 mM HEPES, 10 mM D-glucose, pH=7.4) added. The cells were then loaded by adding 100 μl/well FMP assay dye (FLIPR Membrane Potential assay reagent, Molecular Devices). The 96-well plates were then incubated at 37° C. for 1 h. The depolarization of the cells will cause more dye to enter in the cells, where it will bind to intracellular proteins and lipids and cause an increase in the fluorescence signal. Antagonist potency at human EAAT3 was determined by using L-glutamate as agonist at a concentration which gives 80% of the maximum response. The antagonists were applied 15 min before the application of the agonist L-glutamate. The assays were performed at room temperature and measurements done by using a Fluorometric Imaging Plate Reader (FLIPR, Molecular Devices) and filter #2. Responses were measured as peak increase in fluorescence minus basal (i.e. fluorescence without addition of L-glutamate). Kb was determined using the Cheng-Prusoff equation Kb=IC50/[1+(A/EC50)], where IC50 is the concentration of the antagonist producing 50% inhibition, A is the concentration of the agonist against which the IC50 is being determined (at EC80) and EC50 is the concentration of the agonist producing 50% […].

Structure (SMILES) | Kb [nM]
CC(C)c1ncncc1-c1cc(C(=O)NC2(C)CCS(=O)(=O)C2)cc(-c2ccc(F)cc2)n1 (racemic) [Example 17, (RS)-2-(4-Fluorophenyl)-N-(3-methyl-1,1-dioxothiolan-3-yl)-6-(4-propan-2-yl-pyrimidin-5-yl)-pyridine-4-carboxamide] | 270
CC(C)c1ncncc1-c1cc(C(=O)NC(C)(C)C)cc(-c2ccc(Cl)cc2)n1 [Example 1, N-tert-Butyl-2-(4-chlorophenyl)-6-(4-propan-2-yl-pyrimidin-5-yl)-pyridine-4-carboxamide] | 100
CC(C)c1ncncc1-c1cc(C(=O)NC(C)(C)C)cc(-c2ccc(F)cc2)n1 [Example 2, N-tert-Butyl-2-(4-fluorophenyl)-6-(4-propan-2-yl-pyrimidin-5-yl)-pyridine-4-carboxamide] | 120
CC(C)c1ncncc1-c1cc(C(=O)NC(C)(C)C)cc(-c2ccc(C(F)(F)F)cc2)n1 [Example 3, N-tert-Butyl-2-(4-propan-2-yl-pyrimidin-5-yl)-6-[4-(trifluoromethyl)-phenyl]-pyridine-4-carboxamide] | 110
Cc1ccncc1-c1cc(C(=O)NC(C)(C)C)cc(-c2ccc(F)cc2)n1 [Example 4, N-tert-Butyl-2-(4-fluorophenyl)-6-(4-methylpyridin-3-yl)-pyridine-4-carboxamide] | 260
Cc1ccncc1-c1cc(C(=O)NC(C)(C)C)cc(-c2ccc(Cl)cc2)n1 [Example 5, N-tert-Butyl-2-(4-chlorophenyl)-6-(4-methylpyridin-3-yl)-pyridine-4-carboxamide] | 220
Cc1ccc(-c2cc(C(=O)NC(C)(C)C)cc(-c3cncnc3C(C)C)n2)cc1 [Example 6, N-tert-Butyl-2-(4-methylphenyl)-6-(4-propan-2-yl-pyrimidin-5-yl)-pyridine-4-carboxamide] | 140
CC(C)c1ncncc1-c1cc(C(=O)NC(C)(C)C)cc(-c2ccc(F)c(F)c2)n1 [Example 7, N-tert-Butyl-2-(3,4-difluorophenyl)-6-(4-propan-2-yl-pyrimidin-5-yl)-pyridine-4-carboxamide] | 110
Cc1cc(-c2cc(C(=O)NC(C)(C)C)cc(-c3cncnc3C(C)C)n2)ccc1F [Example 8, N-tert-Butyl-2-(4-fluoro-3-methylphenyl)-6-(4-propan-2-yl-pyrimidin-5-yl)-pyridine-4-carboxamide] | 260
CC(C)c1ncncc1-c1cc(C(=O)NC(C)(C)C)cc(-c2ccc(Cl)c(F)c2)n1 [Example 9, N-tert-Butyl-2-(4-chloro-3-fluorophenyl)-6-(4-propan-2-yl-pyrimidin-5-yl)-pyridine-4-carboxamide] | 260
CC(C)c1ncncc1-c1cc(C(=O)NC(C)(C)C)cc(-c2ccc(C3CC3)cc2)n1 [Example 10, N-tert-Butyl-2-(4-cyclopropyl-phenyl)-6-(4-propan-2-yl-pyrimidin-5-yl)-pyridine-4-carboxamide] | 290
CC(C)c1ncncc1-c1cc(C(=O)NC(C)(C)C2CC2)cc(-c2ccc(Cl)cc2)n1 [Example 11, 2-(4-Chlorophenyl)-N-(2-cyclopropyl-propan-2-yl)-6-(4-propan-2-yl-pyrimidin-5-yl)-pyridine-4-carboxamide] | 150
CC(C)c1ncncc1-c1cc(C(=O)NC(C)(C)C#N)cc(-c2ccc(Cl)cc2)n1 [Example 12, 2-(4-Chlorophenyl)-N-(2-cyanopropan-2-yl)-6-(4-propan-2-yl-pyrimidin-5-yl)-pyridine-4-carboxamide] | 470
CC(C)c1ncncc1-c1cc(C(=O)NC(C)(C)CO)cc(-c2ccc(Cl)cc2)n1 [Example 13, 2-(4-Chlorophenyl)-N-(1-hydroxy-2-methylpropan-2-yl)-6-(4-propan-2-yl-pyrimidin-5-yl)-pyridine-4-carboxamide] | 200
CC(C)c1ncncc1-c1cc(C(=O)NC(C)(C)C(F)(F)F)cc(-c2ccc(Cl)cc2)n1 [Example 14, 2-(4-Chlorophenyl)-6-(4-propan-2-yl-pyrimidin-5-yl)-N-(1,1,1-trifluoro-2-methylpropan-2-yl)-pyridine-4-carboxamide] | 270
COc1ccc(-c2cc(C(=O)NC(C)(C)C)cc(-c3cncnc3C(C)C)n2)cc1 [Example 15, N-tert-Butyl-2-(4-methoxyphenyl)-6-(4-propan-2-yl-pyrimidin-5-yl)-pyridine-4-carboxamide] | 310
Cc1ccc(-c2cc(C(=O)NC(C)(C)C)cc(-c3cncnc3C(C)C)n2)cc1F [Example 16, N-tert-Butyl-2-(3-fluoro-4-methylphenyl)-6-(4-propan-2-yl-pyrimidin-5-yl)-pyridine-4-carboxamide] | 250
CCC(C)(C)NC(=O)c1cc(-c2ccc(F)cc2)nc(-c2cncnc2C(C)C)c1 [Example 18, 2-(4-Fluorophenyl)-N-(2-methylbutan-2-yl)-6-(4-propan-2-yl-pyrimidin-5-yl)-pyridine-4-carboxamide] | 120
CCc1ncncc1-c1cc(C(=O)NC(C)(C)C)cc(-c2ccc(F)cc2)n1 [Example 19, N-tert-Butyl-2-(4-ethyl-pyrimidin-5-yl)-6-(4-fluorophenyl)-pyridine-4-carboxamide] | 180
Cc1ncncc1-c1cc(C(=O)NC(C)(C)C)cc(-c2ccc(F)cc2)n1 [Example 20, N-tert-Butyl-2-(4-fluorophenyl)-6-(4-methylpyrimidin-5-yl)-pyridine-4-carboxamide] | 480
CC(C)(C)NC(=O)c1cc(-c2ccc(F)cc2)nc(-c2cncnc2C2CC2)c1 [Example 21, N-tert-Butyl-2-(4-cyclopropylpyrimidin-5-yl)-6-(4-fluorophenyl)-pyridine-4-carboxamide] | 560
CC(C)(C)NC(=O)c1cc(-c2ccc(F)cc2)nc(-c2cncnc2C(C)(C)C)c1 [Example 22, N-tert-Butyl-2-(4-tert-butyl-pyrimidin-5-yl)-6-(4-fluorophenyl)-pyridine-4-carboxamide] | 63
CC(C)(C)NC(=O)c1cc(-c2ccc(Cl)cc2)nc(-c2cncnc2C(C)(C)C)c1 [Example 23, N-tert-Butyl-2-(4-tert-butylpyrimidin-5-yl)-6-(4-chlorophenyl)-pyridine-4-carboxamide] | 140
CC(C)(C)NC(=O)c1cc(-c2ccc(C(F)(F)F)cc2)nc(-c2cncnc2C(C)(C)C)c1 [Example 24, N-tert-Butyl-2-(4-tert-butyl-pyrimidin-5-yl)-6-[4-(trifluoromethyl)-phenyl]-pyridine-4-carboxamide] | 290
CC(C)c1ccncc1-c1cc(C(=O)NC(C)(C)C)cc(-c2ccc(C(F)(F)F)cc2)n1 [Example 25, N-tert-Butyl-2-(4-propan-2-yl-pyridin-3-yl)-6-[4-(trifluoromethyl)-phenyl]-pyridine-4-carboxamide] | 350
CC(C)c1ccncc1-c1cc(C(=O)NC(C)(C)C)cc(-c2ccc(Cl)cc2)n1 [Example 26, N-tert-Butyl-2-(4-chlorophenyl)-6-(4-propan-2-yl-pyridin-3-yl)-pyridine-4-carboxamide] | 310
CC(C)c1ccncc1-c1cc(C(=O)NC(C)(C)C)cc(-c2ccc(F)cc2)n1 [Example 27, N-tert-Butyl-2-(4-fluorophenyl)-6-(4-propan-2-yl-pyridin-3-yl)-pyridine-4-carboxamide] | 170

System: not given
Test: not given
Details: not given

Structure (SMILES) | melting point [°C]
CC(C)c1ncncc1-c1cc(C(=O)NC(C)(C)C)cc(-c2ccc(F)c(F)c2)n1 [Example 7, N-tert-Butyl-2-(3,4-difluorophenyl)-6-(4-propan-2-yl-pyrimidin-5-yl)-pyridine-4-carboxamide] | 178
